Common to all, as to test: relative viability (nuclei count vs DMSO), 5 days (fraction); higher = more cells survive
Compound in assay [1]: CC1=CC=C(C=C1)C(=O)CN2C3=C(CCCC3)SC2=N [Pifithrin_alpha] + CS(=O)(=O)N1CCN(Cc2cc3nc(-c4cccc5[nH]ncc45)nc(N4CCOCC4)c3s2)CC1 [Pictilisib] (partner 1 µM)
In short, it runs like this:
(§1)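 Relative viability is defined as nuclei in treated wells over nuclei in vehicle wells. Duplicate plates were run and medians reported. Lung cancer cell lines in 1536-well plates were dosed by pin tool one day after seeding, with one drug or with a fixed anchor-drug dose plus five library-drug doses (not always all listed) in √10 steps, and nuclei were counted after 5 days.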

Compound in assay [2]: CNC(=O)c1ccccc1Sc1ccc2c(/C=C/c3ccccn3)n[nH]c2c1 [Axitinib] + O=C(c1cc(Cc2n[nH]c(=O)c3ccccc23)ccc1F)N1CCN(C(=O)C2CC2)CC1 [Olaparib] (partner 8 µM)
In short, it runs like this: as §1

Compound in assay [3]: Nc1nc(Nc2ccc3c(c2)CC[C@@H](N2CCCC2)CC3)nn1-c1cc2c(nn1)-c1ccccc1CCC2 [Bemcentinib] + C[C@@H](Oc1cc(-c2cnn(C3CCNCC3)c2)cnc1N)c1c(Cl)ccc(F)c1Cl [Crizotinib] (partner 1 µM)
Put shortly:
as §1

Compound in assay [4]: CNC(=O)c1ccccc1Sc1ccc2c(/C=C/c3ccccn3)n[nH]c2c1 [Axitinib] + N=C(N)NC(=N)NCCc1ccccc1 [Phenformin] (partner 250 µM)
In short, it runs like this:
as §1

We go through five cell lines from the supplement of paper PMC10307832.

Consider RERF-LC-KJ, for which the relative viability came to 0.535 in assay [1] (first compound 1 µM); 0.397 in assay [1] (first compound 3.162 µM); 0.503 in assay [1] (first compound 10 µM); 0.451 in assay [1] (first compound 31.62 µM); 0.432 in assay [1] (first compound 100 µM); 1.1 in assay [2] (first compound 0.005 µM). Besides, the relative viability was found to be 0.853 in assay [2] (first compound 0.01581 µM); 0.964 in assay [2] (first compound 0.05 µM); 0.81 in assay [2] (first compound 0.1581 µM); 0.951 in assay [2] (first compound 0.5 µM); 0.919 in assay [3] (first compound 0.04 µM); 0.856 in assay [3] (first compound 0.1265 µM). For the same cell line, the relative viability in assay [3] (first compound 0.4 µM) is 0.78; in assay [3] (first compound 1.265 µM) it was 0.896; in assay [3] (first compound 4 µM), 0.841; in assay [4] (first compound 0.005 µM), 0.462; in assay [4] (first compound 0.01581 µM) it was 0.445; in assay [4] (first compound 0.05 µM) it was 0.396. Moreover, the relative viability was found to be 0.457 in assay [4] (first compound 0.1581 µM) and 0.458 in assay [4] (first compound 0.5 µM).

Regarding SK-LU-1, the relative viability in assay [1] (first compound 1 µM) stood at 0.523; in assay [1] (first compound 3.162 µM), 0.526; in assay [1] (first compound 10 µM) it was 0.615; in assay [1] (first compound 31.62 µM) it was 0.451; in assay [1] (first compound 100 µM) it was 0.45; in assay [2] (first compound 0.005 µM), 0.454. For the same cell line, the relative viability in assay [2] (first compound 0.01581 µM) was 0.476; in assay [2] (first compound 0.05 µM) it was 0.525; in assay [2] (first compound 0.1581 µM) it was 0.448; in assay [2] (first compound 0.5 µM), 0.477; in assay [3] (first compound 0.04 µM), 0.923; in assay [3] (first compound 0.1265 µM), 1.09. The relative viability in assay [3] (first compound 0.4 µM) was 0.943; in assay [3] (first compound 1.265 µM) it was 1.07; in assay [3] (first compound 4 µM) it was 1.09; in assay [4] (first compound 0.005 µM), 0.601; in assay [4] (first compound 0.01581 µM), 0.597; in assay [4] (first compound 0.05 µM) it was 0.622. Also, the values for the relative viability in assay [4] (first compound 0.1581 µM) and in assay [4] (first compound 0.5 µM) were 0.558 and 0.752, respectively.

Regarding SK-MES-1, the relative viability in assay [1] (first compound 1 µM) was 0.392; in assay [1] (first compound 3.162 µM) it was 0.32; in assay [1] (first compound 10 µM) it was 0.33; in assay [1] (first compound 31.62 µM), 0.293; in assay [1] (first compound 100 µM), 0.237; in assay [2] (first compound 0.005 µM) it was 0.775. Also, the relative viability in assay [2] (first compound 0.01581 µM) was 0.829; in assay [2] (first compound 0.05 µM), 0.711; in assay [2] (first compound 0.1581 µM), 0.833; in assay [2] (first compound 0.5 µM) it was 1.02; in assay [3] (first compound 0.04 µM) it was 1.03; in assay [3] (first compound 0.1265 µM), 0.955. Besides, the relative viability in assay [3] (first compound 0.4 µM) is 0.998; in assay [3] (first compound 1.265 µM) it was 1.14; in assay [3] (first compound 4 µM) it was 1.06; in assay [4] (first compound 0.005 µM), 0.65; in assay [4] (first compound 0.01581 µM) it was 0.653; in assay [4] (first compound 0.05 µM), 0.654. Further, the relative viability in assay [4] (first compound 0.1581 µM) was 0.631; in assay [4] (first compound 0.5 µM), 0.738.

As to SW 1573, the relative viability in assay [1] (first compound 1 µM) was found to be 0.596; in assay [1] (first compound 3.162 µM), 0.595; in assay [1] (first compound 10 µM), 0.59; in assay [1] (first compound 31.62 µM) it was 0.438; in assay [1] (first compound 100 µM), 0.491; in assay [2] (first compound 0.005 µM), 0.502. Besides, the relative viability in assay [2] (first compound 0.01581 µM) came to 0.595; in assay [2] (first compound 0.05 µM), 0.55; in assay [2] (first compound 0.1581 µM) it was 0.417; in assay [2] (first compound 0.5 µM) it was 0.507; in assay [3] (first compound 0.04 µM), 0.724; in assay [3] (first compound 0.1265 µM), 0.814. Also, the relative viability in assay [3] (first compound 0.4 µM) stood at 0.684; in assay [3] (first compound 1.265 µM) it was 0.776; in assay [3] (first compound 4 µM), 0.764; in assay [4] (first compound 0.005 µM), 0.465; in assay [4] (first compound 0.01581 µM) it was 0.37; in assay [4] (first compound 0.05 µM), 0.398. Also, the relative viability in assay [4] (first compound 0.1581 µM) came out at 0.295; in assay [4] (first compound 0.5 µM), 0.408.

Turning to UMC-11, the relative viability was 0.775 in assay [1] (first compound 1 µM); 0.802 in assay [1] (first compound 3.162 µM); 0.888 in assay [1] (first compound 10 µM); 0.604 in assay [1] (first compound 31.62 µM); 1.03 in assay [1] (first compound 100 µM); 0.353 in assay [2] (first compound 0.005 µM). For the same cell line, the relative viability in assay [2] (first compound 0.01581 µM) was found to be 0.4; in assay [2] (first compound 0.05 µM), 0.737; in assay [2] (first compound 0.1581 µM), 0.376; in assay [2] (first compound 0.5 µM) it was 0.335; in assay [3] (first compound 0.04 µM) it was 0.568; in assay [3] (first compound 0.1265 µM), 0.57. The relative viability amounted to 0.589 in assay [3] (first compound 0.4 µM); 0.692 in assay [3] (first compound 1.265 µM); 0.662 in assay [3] (first compound 4 µM); 0.343 in assay [4] (first compound 0.005 µM); 0.353 in assay [4] (first compound 0.01581 µM); 0.322 in assay [4] (first compound 0.05 µM). Further, the values for the relative viability in assay [4] (first compound 0.1581 µM) and in assay [4] (first compound 0.5 µM) were 0.326 and 0.34, respectively.
